# Results: US10583113B2, “Cromolyn compositions for treatment of pulmonary fibrosis” (Respivant Sciences, GmbH, priority 2016, dated 2020)
# How the values were obtained:
# [1] = available formulations of DSCG, not the compositions of the disclosure; cited from earlier work
# [2] = Pharmacokinetics of cromolyn sodium in plasma and lung after single intraperitoneal injection; format: in vivo, male BALB/c mice; conditions: single IP injection, 10 mg/kg and 100 mg/kg
# Protocol: BALB/c male mice, weighing 22±2 g, were provided by BioLasco Taiwan. All animals were maintained in a well-controlled temperature (20-24° C.) and humidity (30%-70%) environment with 12 hours light/dark cycles. The mice were given free access to a standard lab diet [MFG (Oriental Yeast Co., Ltd., Japan)] and autoclaved tap water.
# The solution was administered to the mice by IP injection at concentrations of 10 mg/kg and 100 mg/kg. The dosing volume for both dose strengths was 5 mL/kg.
# The mice were sedated under general inhalant anesthesia (3% isoflurane) for blood collection by cardiac puncture. […]
# The plasma samples were processed using acetonitrile (ACN) precipitation and analyzed by LC-MS/MS. […] The processed plasma samples were stored at −70° C. until receiving LC-MS/MS analysis, at which time peak areas were recorded, and the concentrations of the test substance in the unknown plasma samples were determined using the respective calibration curve. The reportable linear range of the assay was determined, along with the lower limit of quantitation (LLQ).
# Each lung was homogenized in 1.5 mL cold phosphate-buffered saline (PBS) at pH 7.4 for 10 seconds on ice. The lung homogenate was centrifuged at 5,400×g for 15 minutes at 4° C., and the supernatant was subsequently processed using ACN precipitation and analyzed by LC-MS/MS. […]
structure (smiles),measurement,setting,value
"O=C([O-])c1cc(=O)c2c(OCC(O)COc3cccc4oc(C(=O)O)cc(=O)c34)cccc2o1.[Na+] [cromolyn sodium, disodium 5,5′-(2-hydroxypropane-1,3-diyl)bis(oxy)bis(4-oxo-4H-chromene-2-carboxylate)]",Bioavailability of the available formulations,[1],approximately 1%
same,Exposure of cromolyn sodium in plasma and lungs,[2],Significant exposure
